Patent publication US4550186A, “Binuclear copper (II) carboxylates formed from amine-carboxyboranes” (Duke University, priority 1983, dated 1985)

Target: T1, transfer ribonucleic acid polymerase (Mus musculus, UniProt B2RXC6+P59470)
T1 sequence (B2RXC6 1-1390): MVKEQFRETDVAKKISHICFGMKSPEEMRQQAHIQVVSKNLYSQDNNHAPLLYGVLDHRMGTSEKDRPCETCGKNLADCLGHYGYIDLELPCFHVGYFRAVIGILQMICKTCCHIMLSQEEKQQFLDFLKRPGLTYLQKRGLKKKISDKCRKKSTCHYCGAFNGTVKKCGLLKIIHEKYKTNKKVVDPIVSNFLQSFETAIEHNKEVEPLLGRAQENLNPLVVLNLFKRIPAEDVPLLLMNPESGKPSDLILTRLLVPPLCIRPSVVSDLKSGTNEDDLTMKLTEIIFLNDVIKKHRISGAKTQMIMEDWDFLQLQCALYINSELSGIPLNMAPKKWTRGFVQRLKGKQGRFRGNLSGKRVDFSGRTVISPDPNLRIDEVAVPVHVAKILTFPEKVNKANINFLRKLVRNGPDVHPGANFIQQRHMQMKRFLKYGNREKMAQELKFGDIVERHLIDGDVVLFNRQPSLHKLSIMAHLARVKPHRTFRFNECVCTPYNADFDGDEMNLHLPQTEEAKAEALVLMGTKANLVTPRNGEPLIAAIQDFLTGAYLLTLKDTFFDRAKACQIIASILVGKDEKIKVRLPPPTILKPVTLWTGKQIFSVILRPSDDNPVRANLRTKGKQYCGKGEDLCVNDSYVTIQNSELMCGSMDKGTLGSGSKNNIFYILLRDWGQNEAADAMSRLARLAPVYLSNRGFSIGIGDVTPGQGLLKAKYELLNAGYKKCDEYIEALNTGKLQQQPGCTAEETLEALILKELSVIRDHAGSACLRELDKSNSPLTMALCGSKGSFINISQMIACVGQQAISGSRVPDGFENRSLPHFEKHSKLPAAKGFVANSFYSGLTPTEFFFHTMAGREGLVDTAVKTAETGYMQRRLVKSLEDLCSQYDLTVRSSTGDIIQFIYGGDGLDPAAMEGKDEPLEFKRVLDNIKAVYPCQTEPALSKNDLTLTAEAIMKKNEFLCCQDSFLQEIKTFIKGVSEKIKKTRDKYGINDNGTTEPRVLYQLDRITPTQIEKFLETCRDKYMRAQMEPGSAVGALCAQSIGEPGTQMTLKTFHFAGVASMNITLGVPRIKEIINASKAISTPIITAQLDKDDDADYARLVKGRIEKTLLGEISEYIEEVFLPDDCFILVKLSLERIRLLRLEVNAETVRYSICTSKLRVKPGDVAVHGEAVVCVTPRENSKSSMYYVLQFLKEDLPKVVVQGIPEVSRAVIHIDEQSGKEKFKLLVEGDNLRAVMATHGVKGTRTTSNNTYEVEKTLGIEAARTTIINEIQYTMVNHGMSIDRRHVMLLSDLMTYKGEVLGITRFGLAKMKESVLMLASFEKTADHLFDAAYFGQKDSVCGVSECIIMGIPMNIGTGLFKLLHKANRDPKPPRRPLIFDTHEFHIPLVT
T1 sequence (P59470 1-1133): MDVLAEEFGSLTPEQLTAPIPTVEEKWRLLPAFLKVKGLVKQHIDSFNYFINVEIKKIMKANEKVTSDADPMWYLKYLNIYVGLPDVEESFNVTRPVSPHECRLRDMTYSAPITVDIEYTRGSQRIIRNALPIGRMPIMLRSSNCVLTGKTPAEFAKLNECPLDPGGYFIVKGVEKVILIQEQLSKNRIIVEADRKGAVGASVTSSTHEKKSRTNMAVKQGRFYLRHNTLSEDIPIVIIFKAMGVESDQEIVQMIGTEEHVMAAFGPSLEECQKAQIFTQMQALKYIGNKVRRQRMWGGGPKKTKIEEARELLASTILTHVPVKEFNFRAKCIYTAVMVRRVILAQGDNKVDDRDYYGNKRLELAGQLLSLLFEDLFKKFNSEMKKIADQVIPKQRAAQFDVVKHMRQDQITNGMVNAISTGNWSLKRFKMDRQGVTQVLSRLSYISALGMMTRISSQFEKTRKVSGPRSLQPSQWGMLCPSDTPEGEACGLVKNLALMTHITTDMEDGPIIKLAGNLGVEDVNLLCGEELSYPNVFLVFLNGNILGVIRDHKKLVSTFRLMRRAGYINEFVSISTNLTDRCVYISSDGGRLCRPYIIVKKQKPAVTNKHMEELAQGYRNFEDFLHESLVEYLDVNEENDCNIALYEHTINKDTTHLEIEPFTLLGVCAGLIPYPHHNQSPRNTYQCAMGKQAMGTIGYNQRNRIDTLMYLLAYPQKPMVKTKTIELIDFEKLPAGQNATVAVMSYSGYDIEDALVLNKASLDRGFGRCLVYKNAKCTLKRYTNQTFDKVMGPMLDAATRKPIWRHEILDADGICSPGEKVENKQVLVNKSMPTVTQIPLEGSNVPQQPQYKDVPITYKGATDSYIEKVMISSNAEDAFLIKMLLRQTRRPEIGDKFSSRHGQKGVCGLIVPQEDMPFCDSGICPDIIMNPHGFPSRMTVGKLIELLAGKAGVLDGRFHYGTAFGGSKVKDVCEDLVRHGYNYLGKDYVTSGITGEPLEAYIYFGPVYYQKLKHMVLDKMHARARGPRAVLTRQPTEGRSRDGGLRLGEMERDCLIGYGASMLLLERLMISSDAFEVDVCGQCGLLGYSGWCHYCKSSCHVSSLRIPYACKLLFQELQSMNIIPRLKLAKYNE
Assay: In vitro transfer ribonucleic acid polymerase activity
Assay type: biochemical
Conditions: read-out: ID50, Transfer ribonucleic acid polymerase activity
Method: CF1 male mice (~30 g) were implanted with 2×10^6 Ehrlich ascites tumor cells, intraperitoneally on Day 0. Compound I was suspended by homogenation in 0.05% polysorbate.80-water and administered intraperitoneally at 10 and 20 mg/kg for 9 days to determine its effectiveness for inhibition of tumor growth. Mice were sacrificed on Day 10, and the ascites fluid was collected from the peritoneal cavity. The volume and ascrit (packed cell volume) were determined for each animal and the percent inhibition of tumor growth was calculated. For the metabolic studies, mice were treated on Days 8 and 9 with 10 mg/kg of Compound I, intraperitoneally. The animal was sacrificed on Day 10 and the ascites fluid harvested. The in vitro metabolic studies were performed at […] final concentration of Compound I.
In vitro and in vivo nuclear deoxyribonucleic acid polymerase activity was determined on isolated Ehrlich ascites cell nuclei. The incubation was that described by Sawada et al [Can. Res., 34, 3341 (1974)] except that [methyl-^3 H] deoxythymidine triphosphate (82.4 Ci/mmol) was used. The acid insoluble nucleic acid was collected on GF/F filters and counted. Nuclear ribonucleic acid polymerase activities were determined on enzymes isolated from nuclei. […] The acid insoluble ribonucleic acid was collected on nitrocellulose filters and counted.

**Q.** With “{Cu[(CH3)3 N.BH2 CO2 ]2.(CH3)3 N.BH2 COOH} [Compound I]” as the substance, how does the IC50 read?
**A.** 433 µM
